IC50 data for eight compounds are collected here from patent publication US10493060B2, “Spirocyclic compounds” (ZENO ROYALTIES & MILESTONES, LLC, priority 2015, dated 2019).

One experiment has as its target Activated ERK1 (Homo sapiens (Human), UniProt P27361). Briefly: Active ERK1 kinase assay (Mobility Shift Assay). The format is biochemical. A digest of the protocol:
(§1)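 ERK1 or ERK2 premixed with compound for 30 min at rt in 20 mM HEPES pH7.5, 0.01% Triton X-100, 2 mM DTT; reaction started with Fl-substrate, ATP and metal, run 1 h at rt. Microfluidic mobility-shift separation of product and substrate peptides; activity as P/(P+S) from peak heights.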

A further experiment addresses Activated ERK2 (Homo sapiens (Human), UniProt P28482). The experiment can be described thus: Active ERK2 kinase assay (Mobility Shift Assay). The format is biochemical. A digest of the protocol: as §1
In a further experiment the test system is A375 (melanoma) cells. Briefly: Proliferation assay (CellTiter-Glo), A375. The format is cell-based. The following applies: Homo sapiens, A-375, 72 h, 3 days. How it is done: (§2) A375 (melanoma), Colo-205 (colon cancer), Miapaca (pancreatic), HPAFII (pancreatic), sNF02.0 (neurofibromatosis type 1), sNF96.2 (neurofibromatosis type 1) and 8505 (Thyroid) cells were grown and maintained in RPMI-1640 medium containing 100 U/mL penicillin-streptomycin and 10% fetal bovine serum. Cells were in growth medium in 96-well opaque-walled clear bottom plates and incubated the in the CO2 incubator overnight before treatment. Cells were treated with compounds diluted in DMSO and a 10 point 3-fold serial dilutions were done. Plates were placed in 37° C., 5% CO2 for to incubate for 3 days. Before they were developed by adding 100 μL of CellTiter-Glo reagent (Promega) to the assay plate, plates were shaken briefly for 2 mins and allowed to incubate at rt for 10 mins. The bottom of the plates was pasted with white back seal and luminescence was recorded with Flexstation3 with setting of luminescence, integration time 500 ms.

The subject of experiment [1] is Mia Paca-2 (pancreatic) cells. Briefly: Proliferation assay (CellTiter-Glo), Mia Paca-2. The format is cell-based. The following applies: Homo sapiens, 72 h, Mia Paca-2 cells, 3 days. How it is done:
as §2

Experiment [2] deals with HPAFII (pancreatic) cells. Briefly: Proliferation assay (CellTiter-Glo), HPAFII. The class given is cell-based. The conditions noted are these: Homo sapiens, HPAF-II, 72 h, 3 days. How it is done: as §2
The test system of experiment [3] is sNF02.2 (neurofibromatosis type 1) cells. Briefly: Proliferation assay (CellTiter-Glo), sNF02.2. The class given is cell-based. The following applies: 72 h, sNF02.2 cells, 3 days. How it is done:
as §2

For experiment [4], the system named is sNF96.2 (neurofibromatosis type 1) cells. The experiment can be described thus: Proliferation assay (CellTiter-Glo), sNF96.2. The format is cell-based. The conditions noted are these: 72 h, sNF96.2 cells, 3 days. How it is done:
as §2

In a further experiment the test system is 8505C (Thyroid) cells. The experiment can be described thus: Proliferation assay (CellTiter-Glo), 8505C. The format is cell-based. The following applies: Homo sapiens, 72 h, 8505C cells, 3 days. How it is done:
as §2

The subject of experiment [5] is Colo-205 (colon cancer) cells. Briefly: Proliferation assay (CellTiter-Glo), Colo-205. The format is cell-based. The conditions noted are these: Homo sapiens, COLO 205, 72 h, Colo205 cells, 3 days. How it is done:
as §2

Activated ERK1, sequence (P27361 whole entry): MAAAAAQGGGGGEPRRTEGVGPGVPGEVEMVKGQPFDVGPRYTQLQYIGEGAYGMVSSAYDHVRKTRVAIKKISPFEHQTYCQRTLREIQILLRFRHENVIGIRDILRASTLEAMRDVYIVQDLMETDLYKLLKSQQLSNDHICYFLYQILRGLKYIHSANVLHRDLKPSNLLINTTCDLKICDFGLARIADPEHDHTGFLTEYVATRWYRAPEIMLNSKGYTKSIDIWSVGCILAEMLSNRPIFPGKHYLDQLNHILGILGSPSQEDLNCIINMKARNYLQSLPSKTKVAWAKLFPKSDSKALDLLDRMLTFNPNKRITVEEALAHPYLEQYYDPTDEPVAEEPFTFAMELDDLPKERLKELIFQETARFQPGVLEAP
Activated ERK2, sequence (P28482 whole entry): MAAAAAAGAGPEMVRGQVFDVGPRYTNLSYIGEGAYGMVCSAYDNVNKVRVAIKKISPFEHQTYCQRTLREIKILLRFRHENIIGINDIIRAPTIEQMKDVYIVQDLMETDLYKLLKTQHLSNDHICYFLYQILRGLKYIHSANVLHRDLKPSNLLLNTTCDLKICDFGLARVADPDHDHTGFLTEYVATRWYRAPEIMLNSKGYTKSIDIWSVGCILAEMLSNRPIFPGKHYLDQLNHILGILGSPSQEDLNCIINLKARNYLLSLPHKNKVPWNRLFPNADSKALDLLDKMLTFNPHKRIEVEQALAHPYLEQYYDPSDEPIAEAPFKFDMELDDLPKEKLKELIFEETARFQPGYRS

As to `Cn1cnc(-c2ccc(C3=CCN(C(=O)CN4CC[C@]5(CCN(c6ccc7[nH]nc(-c8ccc(F)cc8)c7c6)C5=O)C4)CC3)cc2)n1` [Example 29, (S)-2-(3-(4-Fluorophenyl)-1H-indazol-5-yl)-7-(2-(4-(4-(1-methyl-1H-1,2,4-triazol-3-yl)phenyl)-3,6-dihydropyridin-1(2H)-yl)-2-oxoethyl)-2,7-diazaspiro[4.4]nonan-1-one], the IC50 was ≤ 50 nM at Activated ERK1; ≤ 50 nM on Activated ERK2; ≤ 500 nM in the experiment with A375 (melanoma) cells; ≤ 500 nM in experiment [1]; ≤ 500 nM in experiment [2]; ≤ 500 nM in experiment [3]. For the same compound, the figures for the IC50 (in experiment [4]; in the experiment on 8505C (Thyroid) cells) were ≤ 500 nM and 500 to 1000 nM, respectively.

Consider `O=C(Nc1ccc2[nH]nc(-c3ccncc3)c2c1)[C@@H]1CCN(CC(=O)N2CCN(c3ccc(-c4ncccn4)cc3)CC2)C1` [SCH772984], for which the IC50 on Activated ERK1 is ≤ 50 nM; in the experiment on A375 (melanoma) cells, ≤ 500 nM; in experiment [5] it was ≤ 500 nM; in experiment [1], ≤ 500 nM; in [2], ≤ 500 nM; in experiment [3], ≤ 500 nM. Moreover, the IC50 (in experiment [4]; in the experiment on 8505C (Thyroid) cells) was 500 to 1000 nM each time.

With `CC(C)Oc1ccc(-c2n[nH]c3ccc(N4CC[C@]5(CCN(CC(=O)N6CC=C(c7ccc(-c8ncn(C)n8)cc7)CC6)C5)C4=O)cc23)cn1` [Example 10, (S)-2-(3-(6-Isopropoxypyridin-3-yl)-1H-indazol-5-yl)-7-(2-(4-(4-(1-methyl-1H-1,2,4-triazol-3-yl)phenyl)-3,6-dihydropyridin-1 (2H)-yl)-2-oxoethyl)-2,7-diazaspiro[4.4]nonan-1-one], the IC50 at Activated ERK1 is ≤ 50 nM; on Activated ERK2, ≤ 50 nM; with A375 (melanoma) cells, ≤ 500 nM; in experiment [5], ≤ 500 nM; in experiment [1] it was ≤ 500 nM; in experiment [2], ≤ 500 nM. In addition, the figures for the IC50 (in experiment [3]; in [4]; with 8505C (Thyroid) cells) were ≥ 1000 nM, 500 to 1000 nM and ≥ 1000 nM, respectively.

As for `Cn1cnc(-c2ccc(C3=CCN(C(=O)CN4CC[C@]5(CCN(c6ccc7[nH]nc(-c8ccnc(C9(C(F)(F)F)CC9)c8)c7c6)C5=O)C4)CC3)cc2)n1` [Example 38, (S)-7-(2-(4-(4-(1-Methyl-1H-1,2,4-triazol-3-yl)phenyl)-3,6-dihydropyridin-1 (2H)-yl)-2-oxoethyl)-2-(3-(2-(1-(trifluoromethyl)cyclopropyl)pyridin-4-yl)-1H-indazol-5-yl)-2,7-diazaspiro[4.4]nonan-1-one], the IC50 on Activated ERK2 is ≤ 50 nM; with A375 (melanoma) cells, ≤ 500 nM; in [1], ≤ 500 nM; in experiment [2], ≤ 500 nM; in experiment [3], ≥ 1000 nM; in [4], 500 to 1000 nM. Moreover, the IC50 with 8505C (Thyroid) cells was ≥ 1000 nM.

Consider `CCNc1nnc(-c2ccc(C3=CCN(C(=O)CN4CC[C@]5(CCN(c6ccc7[nH]nc(-c8ccc(OC(C)C)nc8)c7c6)C5=O)C4)CC3)cc2)o1` [Example 18, (S)-7-(2-(4-(4-(5-(Ethylamino)-1,3,4-oxadiazol-2-yl)phenyl)-3,6-dihydropyridin-1(2H)-yl)-2-oxoethyl)-2-(3-(6-isopropoxypyridin-3-yl)-1H-indazol-5-yl)-2,7-diazaspiro[4.4]nonan-1-one], for which the IC50 at Activated ERK1 is ≤ 50 nM; at Activated ERK2, ≤ 50 nM; with A375 (melanoma) cells it was ≤ 500 nM; in experiment [5], ≤ 500 nM.

`Cc1cc(-c2n[nH]c3ccc(N4CC[C@]5(CCN(CC(=O)N6CC=C(c7ccc(-c8ncn(C)n8)cc7)CC6)C5)C4=O)cc23)ccn1` [Example 8, (S)-7-(2-(4-(4-(1-Methyl-1H-1,2,4-triazol-3-yl)phenyl)-3,6-dihydropyridin-1(2H)-yl)-2-oxoethyl)-2-(3-(2-methylpyridin-4-yl)-1H-indazol-5-yl)-2,7-diazaspiro[4.4]nonan-1-one]: the IC50 was ≤ 50 nM at Activated ERK1; ≤ 50 nM on Activated ERK2; ≤ 500 nM in the experiment on A375 (melanoma) cells; ≤ 500 nM in experiment [5]; ≤ 500 nM in [1]; ≤ 500 nM in experiment [2]. The IC50 (in experiment [3]; in experiment [4]; with 8505C (Thyroid) cells) was ≤ 500 nM throughout.

Turning to `CC(C)Nc1cc(-c2c[nH]c(C(=O)N[C@H](CO)c3cccc(Cl)c3)c2)c(Cl)cn1` [BVD-523], the IC50 at Activated ERK1 is ≤ 50 nM; in the experiment with A375 (melanoma) cells it was ≤ 500 nM; in experiment [5] it was ≤ 500 nM; in [1] it was ≤ 500 nM; in experiment [2], ≤ 500 nM; in experiment [3] it was ≥ 1000 nM. The IC50 in experiment [4] is 500 to 1000 nM; in the experiment on 8505C (Thyroid) cells it was ≥ 1000 nM.

In the case of `Cn1cnc(-c2ccc(C3=CCN(C(=O)CN4CC[C@]5(CCN(c6ccc7[nH]nc(-c8ccnc(C(F)(F)F)c8)c7c6)C5=O)C4)CC3)cc2)n1` [Example 20, (S)-7-(2-(4-(4-(1-Methyl-1H-1,2,4-triazol-3-yl)phenyl)-3,6-dihydropyridin-1 (2H)-yl)-2-oxoethyl)-2-(3-(2-(trifluoromethyl)pyridin-4-yl)-1H-indazol-5-yl)-2,7-diazaspiro[4.4]nonan-1-one], the 50% inhibitory concentration (IC50) at Activated ERK1 was ≤ 50 nM; at Activated ERK2, ≤ 50 nM; in the experiment on A375 (melanoma) cells it was ≤ 500 nM; in experiment [5], ≤ 500 nM.
